From EP3023007A1, “[…]” (JIANGSU ROTAM CHEMISTRY CO., LTD., priority 2013, dated 2015)

Assays:
potato cinerea = assay: Activity of preventing and controlling grey mould of potato (Colby synergy test, visual observation); assay type: in vivo; settings: Solanum tuberosum, potato seedlings in pots, read-out: Observed activity (%)
Excerpt: A synergistic effect exists when the fungicidal activity of the active compound composition is greater than the sum of the activities of the active compounds applied individually. The expected activity for a given combination of two active compounds can be calculated in accordance with Colby's formula (refer to S.R. Colby, "Calculating Synergistic and Antagonistic Responses of Herbicide Combinations", Weeds 1967, 15, 20-22) as follows: • If X denotes the activity when using active compound A at an application rate of mg/ha or in a concentration of mppm; • Y denotes the activity when using active compound B at an application rate of ng/ha or in a concentration of nppm; • E denotes the activity when using active compounds A and B at application rates of m and ng/ha or in concentration of m and n ppm;
Then: E = X + Y−(X⋅Y)/(100) [formula]
The leaves of the potato seedlings in pots were sprayed with the suspension concentrate in a range of concentrations of the active compounds.
The next day, the treated plants were inoculated with a spore suspension of potato cinerea. The pots were then allowed to stand for 24 hours in a room at 20-22 °C and with high humidity (90-95%). During this period, the spores germinated and the germ tubes penetrated into the leaf tissues. […] Later, the development of cinerea on the leaves was determined by visual observation.

cabbage leaf spot = assay: Toxicity test of leaf spot of cabbage (pot test on sprayed seedlings, EC50 and co-toxicity coefficient by Sun Yunpei's method); assay type: in vivo; settings: for EC50 (PPM): cabbage seedlings, sprayed 24 h before inoculation, disease index after seven days; for TTI: toxicity index, cabbage leaf spot
Experimental: (§1) The toxicity index of each of the formulations and the co-toxicity coefficient (CTC value) of the mixed formulation were calculated according to Sun Yunpei's method. […] Actual toxicity index (ATI) = (standard formulation EC50/testing formulation EC50)*100 [formula]
(§2) Theoretical toxicity index (TTI) = (toxicity index of formulation A * percentage of A in the mixed formulation) + (toxicity index of formulation B * percentage of B in the mixed formulation) Co−toxicity coefficient (CTC) = [actual toxicity index(ATI) of the mixed formulation/theoretical toxicity index (TTI)of the mixed formulation]*100 [formula]
(§3) The samples were selected from the cabbage seedlings in the same growing period. Three pots were selected for each treatment and each pot was sprayed with 5 mL with a potter spray tower at the pressure of 50 PSI and each chemical was set for 12 concentration gradients. Inoculation was carried out 24 hours after the treatment of the formulations. The conidiums from the leaves with cabbage leaf spot (collected from the field) was spread evenly on the cabbage seedlings, and the cabbage seedlings were then put in the green house for culturing.
(§4) Seven days later, the disease index for the whole plant was studied according to the pathological grading standard of cabbage leaf spot. The prevention and control efficacy was determined, and the generalized least square method was then applied to calculate the half maximal effective concentration EC50. The Sun Yunpei's method was applied to calculate the co-toxicity coefficient (CTC). Table 3: Toxicity Test Result of Applying the Present Invention to Prevent and Control Leaf Spot of Cabbage

wheat downy mildew = assay: Toxicity test of wheat downy mildew (pot test on sprayed seedlings, EC50 and co-toxicity coefficient by Sun Yunpei's method); assay type: in vivo; settings: for TTI: toxicity index, wheat downy mildew; for EC50 (PPM): wheat seedlings, sprayed 24 h before inoculation, disease index after seven days
Experimental: as §1, §2
(§5) The samples were selected from wheat seedlings in the same growing period of three to four leaf stage. Three pots were selected for each treatment and each pot was sprayed with 5 mL with a potter spray tower at the pressure of 50 PSI and each chemical was set for 12 concentration gradients. Inoculation was carried out 24 hours after the treatment of the formulations. The conidiums from the leaves with wheat downy mildew (collected from a field) was spread evenly on the wheat seedlings, and then the wheat seedlings were put in the green house for culturing.
as §4, with “wheat downy mildew.” for “cabbage leaf spot.”, “was” for “was then”, “1:” for “3:”, “Wheat Downy Mildew” for “Leaf Spot of Cabbage”

sclerotia sclerotium = settings: after applying it once in a suitable period; cited from earlier work
tomato downy mildew = assay: Toxicity test of downy mildew of tomato (pot test on sprayed seedlings, EC50 and co-toxicity coefficient by Sun Yunpei's method); assay type: in vivo; settings: for EC50 (PPM): tomato seedlings, sprayed 24 h before inoculation, disease index after seven days; for TTI: toxicity index, tomato downy mildew
Experimental: as §1, §2
as §3, with “tomato” for “cabbage”, “set” for “set for”, “tomato downy mildew” for “cabbage leaf spot”
as §4, with “tomato downy mildew.” for “cabbage leaf spot.”, “4:” for “3:”, “Tomato Downy Mildew” for “Leaf Spot of Cabbage”

potato gray mold = assay: Toxicity test of potato gray mold (pot test on sprayed seedlings, EC50 and co-toxicity coefficient by Sun Yunpei's method); assay type: in vivo; settings: for EC50 (PPM): potato seedlings, sprayed 24 h before inoculation, disease index after seven days; for TTI: toxicity index, potato gray mold
Experimental: as §1, §2
as §5, with “potato” for “wheat”, “potato gray mold” for “wheat downy mildew”
as §4, with “potato gray mold.” for “cabbage leaf spot.”, “was” for “was then”, “2:” for “3:”, “Potato Gray Mold” for “Leaf Spot of Cabbage”

SMILES | activity at 8 ppm (potato cinerea; Concentration 8 ppm) [%] | EC50 (PPM) (cabbage leaf spot) | TTI (cabbage leaf spot) | TTI (wheat downy mildew) | EC50 (PPM) (wheat downy mildew) | control effect and disease index (sclerotia sclerotium) | EC50 (PPM) (tomato downy mildew) | TTI (tomato downy mildew) | EC50 (PPM) (potato gray mold) | TTI (potato gray mold) | activity at 40 ppm (potato cinerea; Concentration 40 ppm) [%]
O=C(Nc1ccccc1-c1ccc(Cl)cc1)c1cccnc1Cl [Boscalid, 2-chloro-N-(4'-chlorobiphenyl-2-yl) nicotinamide] | 28 | 26.13 | 100 | 100 | 16.23 | more than 80% | 22.24 | 100 | 15.23 | 100 | –
N#Cc1c(Cl)c(Cl)c(Cl)c(C#N)c1Cl [Chlorothalonil, 2,4,5,6-tetrachloro-1,3-benzenedicarbonitrile] | – | 38.03 | 68.71 | 86.5 | 18.76 | – | 32.27 | 68.91 | 38.03 | 68.71 | 0
